Measurements taken from patent publication EP0560267B1, “Isosteric antiherpes peptide derivatives” (BOEHRINGER INGELHEIM (CANADA) LTD., priority 1992, dated 1993).
Read-outs that look alike come from different tables or passages of the source.

Key:
HSV-2 = assay: Inhibition of Herpes Simplex Virus (HSV-2) replication in cell culture; format: cell-based
Protocol: Inhibition of Herpes Simplex Virus (HSV-2) Replication in Cell Culture
BHK-21/C13 cells (ATCC CCL 10) are incubated for two days in 150 cm^2 T-flasks (1.5 x 10^6 cells/flask) with alpha-MEM medium (Gibco Canada Inc., Burlington, Ontario, Canada) supplemented with 8% (v/v) fetal bovine serum (FBS, Gibco Canada Inc.). The cells are trypsinized and then transferred to fresh media in a 24 well plate to give 2.5 x 10^5 cells in 750 µL of media per well. The cells are incubated at 37° for a period of 6 h to allow them to adhere to the plate. Thereafter, the cells are washed once with 500 µL of alpha-MEM supplemented with 0.5% (v/v) FBS and then incubated with 750 µL of the same media (low serum) for 3 days. After this period of serum starvation, the low serum medium is removed and the cells are incubated in 500 µL of BBMT for 2 to 3 hours. {BBMT medium is described by P. Brazeau et al., Proc. Natl. Acad. Sci. USA, 79, 7909 (1982).} Thereafter, the cells are infected with HSV-2 (multiplicity of infection = 0.02 PFU/cell) in 100 µL of BBMT medium. (Note: The HSV-2 used was strain HG-52, see Y. Langelier and G. Buttin, J. Gen. Virol., 57, 21 (1981); the virus was stored at -80°.) Following 1 h of virus adsorption at 37°, the media is removed and the cells are washed with BBMT (3 X 250 µL). The cells in each well are incubated with or without (control) appropriate concentrations of the test agent dissolved in 200 µL of BBMT medium. After 29 h of incubation at 37°, the infected cells are harvested by first freezing the plate at -80°, followed by thawing. The cells in each well are scraped off the surface of the well with the help of the melting ice fragments. After complete thawing, the cell suspensions are collected and each well is rinsed with 150 µL of BBMT medium. The viral sample (suspension plus washing) is sonicated gently for 4 min at 4°. Cell debris are removed by centrifugation (1000 times gravity for 10 minutes at 4°). The supernatant is collected and stored at -80° until determination of viral titer.
Viral titration was performed by a modification of the colorimetric assay method of M. Langlois et al., Journal of Biological Standardization, 14, 201 (1986).
More specifically, in a similar manner as described above, BHK-21/C13 cells are trypsinized and transferred to fresh media in a 96 well microtiter plate to give 20,000 cells in 100 µL of media per well. The cells in the prepared plate are incubated at 37° for 2 h. During that time, the viral sample is thawed and sonicated gently for 15 seconds, and log dilutions of the sample are prepared (1/5 sequential: 50 µL of the sample plus 200 µL of BBMT medium, sequential dilutions being done with a multichannel pipette.
On completion of the above 2 hour incubation of the BHK-21/C13 cells, the media is replaced with alpha-MEM medium supplemented with 3% (v/v) FBS. The cells are now ready to be infected with the various sample dilutions of virus. Aliquots (50 µL) of the various dilutions are transferred into the appropriate wells of the plate. The resulting infected cells are incubated for 2 days at 37°. Then 50 µL of a 0.15% (v/v) solution of neutral red dye in Hank's Balanced Salt Solution (pH 7.3, Gibco Canada Inc.) is added to each well. The prepared plate is incubated for 45 min at 37°. Medium from each well is then aspirated and the cells are washed once with 200 µL of Hank's Balanced Salt Solution. […]

[1] = biological target: T1, HSV-1 ribonucleotide reductase (Human herpesvirus 1, UniProt P08543); assay: Inhibition of Herpes Simplex Virus (HSV-1) ribonucleotide reductase; format: biochemical
T1 construct: HSV-1 ribonucleotide reductase (partially purified) was obtained from quiescent BHK-21/C13 cells infected with strain F HSV-1 virus; made in house; host or cells: quiescent BHK-21/C13 cells infected with HSV-1 strain F (virus-encoded enzyme, partially purified)
Source text: Inhibition of Herpes Simplex Virus (HSV-1) Ribonucleotide Reductase
• a) Preparation of Enzyme HSV-1 ribonucleotide reductase (partially purified) was obtained from quiescent BHK-21/C13 cells infected with strain F HSV-1 virus at 10 plaque forming units/cell as described by E.A. Cohen et al., J. Gen. Virol., 66, 733 (1985). • b) Assay and Results for Exemplified Peptides By following the procedure described by P. Gaudreau et al., J. Biol, Chem., 262, 12413 (1987), the assay results listed in the following Table I were obtained. The assay result for each exemplified compound of formula 1 is expressed as the concentration of the compound producing 50% of the maximal inhibition (IC50) of enzyme activity. The number of units of the enzyme preparation used in each assay was constant, based on the specific activity of the enzyme preparation. The results are relative to the activity obtained in control experiments without the test compound and represent the mean of four assays that varied less than 10% with each other.

[2] = Human alphaherpesvirus 2, BHK21 (C13), 29 h, Table II, BHK-21/C13 cells, HSV-2 strain HG-52, 0.02 PFU/cell, 29 h incubation, read-out: EC50
[3] = Human alphaherpesvirus 2, Table IV, cell culture assay of example 11, read-out: EC50
[4] = Table I, partially purified enzyme from BHK-21/C13 cells infected with strain F HSV-1, mean of four assays
[5] = Human alphaherpesvirus 2, BHK21 (C13), 29 h

T1 sequence (P08543 whole entry): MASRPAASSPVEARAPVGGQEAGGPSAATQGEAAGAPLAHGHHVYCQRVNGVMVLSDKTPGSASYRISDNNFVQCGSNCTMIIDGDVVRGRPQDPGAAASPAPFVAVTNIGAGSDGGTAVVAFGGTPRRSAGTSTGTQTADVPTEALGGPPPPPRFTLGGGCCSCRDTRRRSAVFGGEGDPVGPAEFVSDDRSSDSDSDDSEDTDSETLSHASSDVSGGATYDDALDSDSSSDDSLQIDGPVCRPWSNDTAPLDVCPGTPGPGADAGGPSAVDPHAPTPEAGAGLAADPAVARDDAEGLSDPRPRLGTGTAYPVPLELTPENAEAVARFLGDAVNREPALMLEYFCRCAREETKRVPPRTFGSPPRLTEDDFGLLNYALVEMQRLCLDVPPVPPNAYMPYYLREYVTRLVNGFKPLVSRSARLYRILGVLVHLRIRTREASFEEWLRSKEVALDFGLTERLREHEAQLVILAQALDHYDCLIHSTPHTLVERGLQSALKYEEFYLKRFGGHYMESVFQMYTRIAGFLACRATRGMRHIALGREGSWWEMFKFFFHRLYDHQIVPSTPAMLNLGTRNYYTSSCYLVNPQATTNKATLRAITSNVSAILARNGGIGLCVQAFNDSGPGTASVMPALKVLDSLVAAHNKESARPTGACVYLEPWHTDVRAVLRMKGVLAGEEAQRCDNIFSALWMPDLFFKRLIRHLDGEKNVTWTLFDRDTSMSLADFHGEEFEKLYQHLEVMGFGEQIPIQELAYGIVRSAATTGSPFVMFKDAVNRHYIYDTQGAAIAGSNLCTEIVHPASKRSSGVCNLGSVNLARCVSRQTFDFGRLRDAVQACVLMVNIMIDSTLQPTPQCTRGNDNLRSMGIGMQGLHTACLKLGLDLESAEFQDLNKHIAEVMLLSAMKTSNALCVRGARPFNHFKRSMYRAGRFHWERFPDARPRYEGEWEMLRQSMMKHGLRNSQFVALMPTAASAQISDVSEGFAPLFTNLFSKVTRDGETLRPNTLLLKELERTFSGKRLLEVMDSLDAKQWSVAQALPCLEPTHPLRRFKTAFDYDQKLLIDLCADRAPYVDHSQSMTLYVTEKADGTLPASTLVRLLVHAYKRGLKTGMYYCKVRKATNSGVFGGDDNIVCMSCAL

## CCCC1(NC(=O)N[C@H](C(=O)C[C@@H](CC(=O)C(C)(C)C)C(=O)N[C@H](C(=O)NCC(C)(C)C)C2(C(=O)O)CCCC2)C(C)(C)C)CCCC1 [(1-propylcyclopentyl)aminocarbonyl-Tbg-CH2-(R)-CH(CH2C(O)CMe3)C(O)-Asp(cyPn)-NHCH2CMe3]
HSV-2; [2]
  EC50: 40 µM

## C=CCC(CC=C)NC(=O)NC(C(=O)CC(CC(=O)C(C)(C)C)C(=O)NC(C(=O)NCC(C)(C)C)C1(C(=O)O)CCCC1)C(C)(C)C [(CH2=CHCH2)2-CHNHC(O) / NHCH2CMe3, (CH2=CHCH2)2-CHNHC(O)-Tbg-CH2-(R)-CH(CH2C(O)CMe3)C(O)-Asp(cyPn)-NHCH2CMe3]
[1]; Table IV, assay of example 10
  IC50: 0.37 µM
HSV-2; [3]
  EC50: 100 µM

## C=CCC(CC=C)NC(=O)NC(C(=O)CC(CC(=O)C(C)(C)C)C(=O)NC(C(=O)NC(C)C(C)(C)C)C1(C(=O)O)CCCC1)C(C)(C)C [(CH2=CHCH2)2-CHNHC(O)-Tbg-CH2-(R)-CH(CH2C(O)CMe3)C(O)-Asp(cyPn)-NH-(R)-CH(Me)CMe3]
[1]; Table IV, assay of example 10
  IC50: 0.32 µM
HSV-2; [3]
  EC50: 48 µM

## CCCCC(CC)NC(=O)NC(C(=O)CC(CC(=O)C(C)(C)C)C(=O)NC(C(=O)NCC(C)(C)C)C1(C(=O)O)CCCC1)C(C)(C)C [(R,S)-EtBuCH-NHC(O) / NHCH2CMe3, (R,S)-EtBuCH-NHC(O)-Tbg-CH2-(R)-CH(CH2C(O)CMe3)C(O)-Asp(cyPn)-NHCH2CMe3]
[1]; Table IV, assay of example 10
  IC50: 0.26 µM
HSV-2; [3]
  EC50: 35 µM

## CCC(CC)NC(=O)NC(C(=O)CC(CC(=O)C(C)(C)C)C(=O)NC(C(=O)NC(CC(C)(C)C)C(N)=O)C1(C(=O)O)CCCC1)C(C)(C)C [Et2CHNHC(O)-Tbg-CH2-(R)-CH(CH2C(O)-CMe3)C(O)-Asp(cyPn)-γMeLeu-NH2]
[1]; [4]
  IC50: 0.22 µM

## CCC(CC)NC(=O)NC(C(=O)CC(CC(=O)C(C)(C)C)C(=O)NC(C(=O)NC(CC(C)(C)C)C(=O)O)C1(C(=O)O)CCCC1)C(C)(C)C [Et2CHNHC(O)-Tbg-CH2-(R)-CH(CH2C(O)-CMe3)C(O)-Asp(cyPn)-γMeLeu-OH]
[1]; [4]
  IC50: 0.12 µM

## CCC(CC)NC(=O)NC(C(=O)CC(CC(=O)C(C)(C)C)C(=O)NC(C(=O)NCC(C)(C)C)C(C)C(=O)O)C(C)(C)C [Et2CHNHC(O)-Tbg-CH2-(R)-CH(CH2C(O)-CMe3)C(O)-Asp{(R)-Me}-NHCH2CMe3]
[1]; [4]
  IC50: 0.2 µM

## CCCC(CC)(CCC)NC(=O)N[C@H](C(=O)C[C@@H](CC(=O)C(C)(C)C)C(=O)N[C@H](C(=O)NCC(C)(C)C)C1(C(=O)O)CCCC1)C(C)(C)C [EtPr2CNHC(O) / NHCH2CMe3, EtPr2CNHC(O)-Tbg-CH2-(R)-CH(CH2C(O)CMe3)C(O)-Asp(cyPn)-NHCH2CMe3]
HSV-2; [3]
  EC50: 16 µM

## CC(C)C(C(=O)NC(C(=O)CC(CC(=O)C(C)(C)C)C(=O)NC(C(=O)NCC(C)(C)C)C1(C(=O)O)CCCC1)C(C)(C)C)N(C)C(=O)CCc1ccccc1 [PhCH2CH2C(O)-(N-Me)Val-Tbg-CH2-(R)-CH(CH2C(O)CMe3)C(O)-Asp(cyPn)-NHCH2CMe3]
[1]; [4]
  IC50: 0.33 µM

## CC(C)[C@@H](C(=O)N[C@H](C(=O)C[C@@H](CC(=O)C(C)(C)C)C(=O)N[C@H](C(=O)N[C@@H](CC(C)(C)C)C(N)=O)C1(C(=O)O)CCCC1)C(C)(C)C)N(C)C(=O)CCc1ccccc1 [PhCH2CH2C(O)-(N-Me)Val-Tbg-CH2-(R)-CH(CH2C(O)CMe3)C(O)-Asp(cyPn)-γMeLeu-NH2]
HSV-2; [5]
  EC50: 60 µM

## CC(C)[C@@H](C(=O)N[C@H](C(=O)C[C@@H](CC(=O)C(C)(C)C)C(=O)N[C@H](C(=O)N[C@@H](CC(C)(C)C)C(=O)O)C1(C(=O)O)CCCC1)C(C)(C)C)N(C)C(=O)CCc1ccccc1 [PhCH2CH2C(O)-(N-Me)Val-Tbg-CH2-(R)-CH(CH2C(O)CMe3)C(O)-Asp(cyPn)-γMeLeu-OH]
HSV-2; [5]
  EC50: 65 µM

## CC(C)C(C(=O)NC(C(=O)CC(CC(=O)C(C)(C)C)C(=O)NC(C(=O)NCC(C)(C)C)C(C)C(=O)O)C(C)(C)C)N(C)C(=O)CCc1ccccc1 [PhCH2CH2C(O)-(N-Me)Val-Tbg-CH2-(R)-CH(CH2C(O)CMe3)C(O)-Asp{(R)-Me}-NHCH2CMe3]
[1]; [4]
  IC50: 0.33 µM

## CC(C)C(C(=O)NC(C(=O)CC(CC(=O)C1CCCC1)C(=O)NC(C(=O)NCC(C)(C)C)C1(C(=O)O)CCCC1)C(C)(C)C)N(C)C(=O)CCc1ccccc1 [PhCH2CH2C(O)-(N-Me)Val-Tbg-CH2-(R)-CH{CH2C(O)-(cyclopentyl)}C(O)-Asp-(cyPn)-NHCH2CMe3]
[1]; [4]
  IC50: 0.32 µM

## CCCC(CCC)NC(=O)NC(C(=O)CC(CC(=O)C(C)(C)C)C(=O)NC(C(=O)NC1CCCCC1C)C1(C(=O)O)CCCC1)C(C)(C)C [Pr2CHNHC(O) / trans-NH-(2-methyl-cyclohexyl)] [Pr2CHNHC(O)-Tbg-CH2-(R)-CH(CH2C(O)CMe3)C(O)-Asp(cyPn)-trans-NH-(2-methyl-cyclohexyl)]
HSV-2; Table IV, cell culture assay of example 11, read-out: EC50
  EC50: 60 µM

## CCCC(CCC)NC(=O)NC(C(=O)CC(CC(=O)C(C)(C)C)C(=O)NC(C(=O)NC(CC(C)(C)C)C(=O)O)C1(C(=O)O)CCCC1)C(C)(C)C [Pr2CHNHC(O)-Tbg-CH2-(R)-CH(CH2C(O)-CMe3)C(O)-Asp(cyPn)-γMeLeu-OH]
[1]; [4]
  IC50: 0.15 µM

## CCCC(CCC)NC(=O)NC(C(=O)CC(CC(=O)C(C)(C)C)C(=O)NC(C(=O)NC1CCCCC1C)C1(C(=O)O)CCCC1)C(C)(C)C [Pr2CHNHC(O)-Tbg-CH2-(R)-CH(CH2C(O)CMe3)C(O)-Asp(cyPn)-trans-NH-(2-methyl-cyclohexyl)]
[1]; Table IV, assay of example 10
  IC50: 0.69 µM

## CCCC(CCC)NC(=O)N[C@H](C(=O)C[C@@H](CC(=O)C1CCCC1)C(=O)N[C@H](C(=O)NCC(C)(C)C)C1(C(=O)O)CCCC1)C(C)(C)C [Pr2CHNHC(O)-Tbg-CH2-(R)-CH{CH2C(O)(cyclopentyl)}C(O)-Asp(cyPn)-NHCH2CMe3]
HSV-2; [2]
  EC50: 30 µM

## CC(C)[C@@H](C(=O)N[C@H](C(=O)C[C@@H](CC(=O)C(C)(C)C)C(=O)N[C@H](C(=O)N[C@H](CO)CC(C)(C)C)C1(C(=O)O)CCCC1)C(C)(C)C)N(C)C(=O)CCc1ccccc1 [Title Compound of Example 6, PhCH2CH2C(O)-(N-Me)Val-Tbg-CH2(R)-CH(CH2C(O)CMe3)C(O)-Asp(cyPn)-γMeLeucinol]
HSV-2; Human alphaherpesvirus 2, BHK21 (C13)
  EC50: 19 µM
HSV-2; [5]
  EC50: 15 µM

## CCC(CC)NC(=O)NC(C(=O)CC(CC(=O)C(C)(C)C)C(=O)NC(C(=O)NC(CO)CC(C)(C)C)C1(C(=O)O)CCCC1)C(C)(C)C [Title Compound of Example 7, Et2CHNHC(O)-Tbg-CH2-(R)-CH(CH2C(O)CMe3)CO-Asp(cyPn)-γMeLeucinol]
[1]; [4]
  IC50: 0.15 µM

## Nc1nc2c(ncn2COCCO)c(=O)[nH]1 [acyclovir, reference compound]
HSV-2; Human alphaherpesvirus 2, BHK21 (C13), Table III, agent alone, BHK-21/C13 cells, HSV-2 strain HG-52, read-out: EC50
  EC50: 3.5 µM
HSV-2; combination of acyclovir with the title peptide of example 6, EC50's lower than acyclovir alone, isobole method, Figure 1
  action of the combination of acyclovir and the peptide of formula 1: synergistic action

## Pr2CHNHC(O)-Tbg-CH2-(R)-CH-(CH2C(O)CH2CMe3)C(O)-Asp(cyPn)-Leu-OH
HSV-2; Table V, cell culture assay of example 11, read-out: EC50
  EC50: 80 µM
